Laboratory results taken from PMC8453635, “Piperidine Azasugars Bearing Lipophilic Chains: Stereoselective Synthesis and Biological Activity as Inhibitors of Glucocerebrosidase (GCase)” (The Journal of Organic Chemistry, 2021).

Target: T1, GCase (Homo sapiens, UniProt P04062)
T1 construct: screened toward GCase in leukocytes isolated from healthy donors (controls); from tissue; host or cells: leukocytes isolated from healthy donors, disrupted by sonication
T1 sequence (P04062 40-536): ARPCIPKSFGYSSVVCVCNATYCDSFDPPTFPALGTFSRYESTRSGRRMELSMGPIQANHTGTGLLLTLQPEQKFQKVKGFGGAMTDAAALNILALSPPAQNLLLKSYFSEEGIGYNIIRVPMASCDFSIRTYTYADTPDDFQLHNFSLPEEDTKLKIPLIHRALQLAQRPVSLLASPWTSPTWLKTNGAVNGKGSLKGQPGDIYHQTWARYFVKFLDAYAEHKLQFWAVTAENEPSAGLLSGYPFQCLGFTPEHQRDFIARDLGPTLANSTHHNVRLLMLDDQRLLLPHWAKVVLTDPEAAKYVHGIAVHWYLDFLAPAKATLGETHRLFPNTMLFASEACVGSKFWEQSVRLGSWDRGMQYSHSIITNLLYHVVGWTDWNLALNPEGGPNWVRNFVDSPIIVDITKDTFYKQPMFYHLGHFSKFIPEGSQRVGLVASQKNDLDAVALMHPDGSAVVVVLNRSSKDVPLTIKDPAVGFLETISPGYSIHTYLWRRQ
Assay: GCase inhibition in human leukocyte homogenates
Assay type: biochemical
Conditions: for GCase inhibition [%]: human leukocytes extracts incubated with azasugars (1 mM); for IC50: human leukocytes from healthy donors, substrate 4-methylumbelliferyl-β-D-glucoside 3.33 mM
Procedure: Compounds 14, 15, and 33·HCl were then tested at 1 mM for GCase inhibition in human leukocyte homogenates. The results obtained were compared with data of previously reported compounds 9, 11, and 12.[12],[16],[17]
The compounds 14, 15, and 33·HCl were screened toward GCase in leukocytes isolated from healthy donors (controls). Isolated leukocytes were disrupted by sonication, and a micro BCA protein assay kit (Sigma-Aldrich) was used to determine the total protein amount for the enzymatic assay, according to the manufacturer instructions. Enzyme activity was measured in a flat-bottomed 96-well plate. Compound solution (3 μL), 4.29 μg/μL leukocytes homogenate (7 μL), and substrate 4-methylumbelliferyl-β-D-glucoside (3.33 mM, 20 μL, Sigma-Aldrich) in citrate/phosphate buffer (0.1:0.2, M/M, pH 5.8) containing sodium taurocholate (0.3%) and Triton X-100 (0.15%) at 37 °C were incubated for 1 h. The reaction was stopped by addition of sodium carbonate (200 μL; 0.5 M, pH 10.7) containing Triton X-100 (0.0025%), and the fluorescence of 4-methylumbelliferone released by β-glucosidase activity was measured in SpectraMax M2 microplate reader (λex = 365 nm, λem = 435 nm; Molecular Devices). Percentage GCase inhibition is given with respect to the control (without compound). Data are mean SD (n = 3).
The IC50 values of inhibitors against GCase were determined by measuring the initial hydrolysis rate with 4-methylumbelliferyl-β-D-glucoside (3.33 mM). Data obtained were fitted by using the appropriate Equation (for more details, see the Supporting Information section).
Percentage of GCase inhibition of compounds 14, 15 and 33.HCl towards human GCase Percentage of GCase inhibition of the whole collection of compounds in human leukocytes extracts incubated with iminosugars at 1 mM concentration.
IC50 determination: The IC50 values of inhibitors against GCase were determined by measuring the initial hydrolysis rate with 4-methylumbelliferyl-β-D-glucoside (3.33 mM). Data obtained were fitted to the following equation using the Origin Microcal program. where Vi/Vo, represent the ratio between the activity measured in the presence of the inhibitor (Vi) and the activity of the control without the inhibitor (V0), “x” the inhibitor concentration, Max and Min, the maximal and minimal enzymatic activity observed, respectively.
(also on this page, place not known: Min IC x MinMax Vo Vi slope + […] […] […] […] […] […]+ −= 50 1 (V i) activity nmoli/mg/h)
(1 picture or pasted object on this page, not shown here)

Compound	GCase inhibition [%]	IC50 [µM]	GCase inhibitory activity relative to monoalkylated counterpart 12 (comparison of IC50 values)
CCCCCCCC[C@H]1[C@@H](O)[C@H](O)[C@H](O)CN1CCCCCCCC [compound 14, (2S,3R,4R,5R)-1,2-Dioctylpiperidine-3,4,5-triol]	100	100 ± 9	–
CCCCCCCC[C@@H]1[C@@H](O)[C@H](O)[C@H](O)CN1CCCCCCCC [compound 15, (2R,3R,4R,5R)-1,2-Dioctylpiperidine-3,4,5-triol]	100	15 ± 4	twofold more active
CCCCCCCC[C@@H]1[C@@H](O)[C@H](O)[C@H](O)CN1C(CCCCCCC)CCCCCCC.Cl [compound 33·HCl, (2R,3R,4R,5R)-2-Octyl-1-(pentadecan-8-yl)-piperidine-3,4,5-triol Hydrochloride]	75	130 ± 15	–
